Results from US8361997B2, “Process for preparing a crystalline form of halobetasol propionate” (Taro Pharmaceutical North America, Inc., priority 2005, dated 2013).

How the values were obtained:
[1] = Stability of HPLC sample and standard solutions in diluent; type: physicochemical; conditions: approx. 20 mg in 100 mL diluent (45:55 v/v water and acetonitrile); room temperature for 2 days protected from sunlight
Procedure: (§1) Approximately 20 mg of the crystalline halobetasol propionate sample to be assayed, accurately weighed, was transferred into a 100-mL volumetric flask, and the flask was filled to volume with diluent. The solution was sonicated to ensure complete dissolution. The sample solution was stable at room temperature for 2 days protected from sunlight.
as §1, with “of a” for “of the”, “propionate standard,” for “propionate sample to be assayed,”, “The standard” for “The sample”

[2] = cited from earlier work

For `CCC(=O)O[C@]1(C(=O)CCl)[C@@H](C)C[C@H]2[C@@H]3C[C@H](F)C4=CC(=O)C=C[C@]4(C)[C@@]3(F)[C@@H](O)C[C@@]21C` [Halobetasol propionate, (6α,11β,16β)-21-chloro-6,9-difluoro-11-hydroxy-16-methyl-17-(1-oxopropoxy)pregna-1,4-diene-3,20-dione], the “stability of the solution” value [1] is listed as “stable”, the “solubility in organic solvents” value ([2]; organic solvents) is listed as “soluble” and the solubility in water ([2]; water) is listed as “insoluble”.
